Source: ChEMBL document CHEMBL4049417, “Design and synthesis of novel 6-aryl substituted 4-anilinequinazoline derivatives as potential PI3Kδ inhibitors” (Bioorg Med Chem Lett, 2017)

Experiments:
[1] = molecular target: PI3-kinase p110-delta/p85-alpha (Homo sapiens) (UniProt P27986+O00329); experiment: Inhibition of PI3K p110delta/p85alpha (unknown origin) at 100 nM using lipid substrate after 40 mins by kinase-glo luminescence assay relative to control; type: protein-complex assay
[2] = system: Ramos; experiment: Antiproliferative activity against human Ramos cells after 72 hrs by MTT assay; type: functional, cell-based
[3] = Antiproliferative activity against human RPMI8266 cells after 72 hrs by MTT assay; type: functional, cell-based; conditions: RPMI8266, 72 h
[4] = system: Raji; experiment: Antiproliferative activity against human Raji cells after 72 hrs by MTT assay; type: functional, cell-based
[5] = molecular target: PI3-kinase p110-delta/p85-alpha (Homo sapiens, UniProt O00329); experiment: Inhibition of PI3K p110delta/p85alpha (unknown origin) using lipid substrate after 40 mins by kinase-glo luminescence assay; type: protein-complex assay
PI3-kinase p110-delta/p85-alpha, sequence (P27986 whole entry): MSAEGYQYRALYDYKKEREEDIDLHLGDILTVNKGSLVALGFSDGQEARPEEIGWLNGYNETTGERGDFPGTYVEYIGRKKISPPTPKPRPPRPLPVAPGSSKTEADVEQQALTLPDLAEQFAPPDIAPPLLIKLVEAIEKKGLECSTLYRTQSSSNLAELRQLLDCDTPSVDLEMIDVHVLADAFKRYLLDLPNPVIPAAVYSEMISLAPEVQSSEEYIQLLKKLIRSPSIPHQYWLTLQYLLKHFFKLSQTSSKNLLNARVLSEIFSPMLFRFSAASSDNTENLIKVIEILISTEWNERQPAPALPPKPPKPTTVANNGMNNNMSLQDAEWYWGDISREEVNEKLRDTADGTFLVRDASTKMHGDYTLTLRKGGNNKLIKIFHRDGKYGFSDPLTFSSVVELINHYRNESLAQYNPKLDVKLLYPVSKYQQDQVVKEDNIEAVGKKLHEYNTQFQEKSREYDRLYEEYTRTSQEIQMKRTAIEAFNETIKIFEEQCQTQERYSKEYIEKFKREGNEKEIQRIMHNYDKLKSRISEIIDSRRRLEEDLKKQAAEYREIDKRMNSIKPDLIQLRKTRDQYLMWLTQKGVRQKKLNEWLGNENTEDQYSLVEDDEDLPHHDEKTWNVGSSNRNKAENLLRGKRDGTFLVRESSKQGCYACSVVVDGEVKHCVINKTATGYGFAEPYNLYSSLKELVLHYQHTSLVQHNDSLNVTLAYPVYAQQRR
PI3-kinase p110-delta/p85-alpha, sequence (O00329 whole entry): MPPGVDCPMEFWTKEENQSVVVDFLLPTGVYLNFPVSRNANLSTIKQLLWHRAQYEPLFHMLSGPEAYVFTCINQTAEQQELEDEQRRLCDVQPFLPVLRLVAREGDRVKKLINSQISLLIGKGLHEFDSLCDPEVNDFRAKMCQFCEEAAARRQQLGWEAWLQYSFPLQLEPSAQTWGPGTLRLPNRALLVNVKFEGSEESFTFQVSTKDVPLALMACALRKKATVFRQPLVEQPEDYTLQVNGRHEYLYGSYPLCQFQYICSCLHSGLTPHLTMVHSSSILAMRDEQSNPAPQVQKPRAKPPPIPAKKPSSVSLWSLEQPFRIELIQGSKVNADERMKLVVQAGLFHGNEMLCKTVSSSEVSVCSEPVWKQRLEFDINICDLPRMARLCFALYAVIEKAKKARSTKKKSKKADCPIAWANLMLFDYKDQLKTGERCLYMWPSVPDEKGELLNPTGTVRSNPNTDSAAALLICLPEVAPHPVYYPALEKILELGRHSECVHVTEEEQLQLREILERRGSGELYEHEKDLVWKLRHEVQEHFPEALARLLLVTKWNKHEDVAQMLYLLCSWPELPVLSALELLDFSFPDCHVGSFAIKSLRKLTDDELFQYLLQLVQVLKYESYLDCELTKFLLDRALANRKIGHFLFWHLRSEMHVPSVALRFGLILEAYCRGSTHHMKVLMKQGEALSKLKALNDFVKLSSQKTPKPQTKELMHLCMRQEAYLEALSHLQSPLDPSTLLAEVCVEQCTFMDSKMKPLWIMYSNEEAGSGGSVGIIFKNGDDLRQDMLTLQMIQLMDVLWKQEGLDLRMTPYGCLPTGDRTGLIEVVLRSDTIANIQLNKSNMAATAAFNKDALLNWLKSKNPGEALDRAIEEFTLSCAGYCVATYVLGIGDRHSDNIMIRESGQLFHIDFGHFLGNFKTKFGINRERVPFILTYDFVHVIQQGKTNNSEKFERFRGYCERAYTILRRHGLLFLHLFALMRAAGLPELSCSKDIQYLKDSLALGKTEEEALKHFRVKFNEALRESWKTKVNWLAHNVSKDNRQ

Row | inhibition [1] [%] | IC50 [2] [nM] | IC50 [4] [nM] | IC50 [5] [nM] | Compound | IC50 [3] [nM]
1 | 87 |  |  |  | COc1ccc(-c2ccc3ncnc(Nc4cccc(C(=O)N5CCOCC5)c4)c3c2)cn1 | 
2 | 96 | > 10000 | 9950 |  | CC[C@H](Nc1ncnc2[nH]cnc12)c1nc2cccc(F)c2c(=O)n1-c1ccccc1 [IDELALISIB] | 5490
3 | 12 |  |  |  | COc1ccc(-c2ccc3ncnc(Nc4ccc(C(=O)N5CCN(C)CC5)cc4)c3c2)cc1C(N)=O | 
4 | 21 |  |  |  | COc1ccc(-c2ccc3ncnc(Nc4cccc(C(=O)N5CCOCC5)c4)c3c2)cc1C(N)=O | 
5 | 71 |  |  |  | COc1ccc(-c2ccc3ncnc(Nc4cccc(C(=O)N5CCN(C)CC5)c4)c3c2)cn1 | 
6 | 93 | > 10000 | > 10000 | 9.3 | COc1ncc(-c2ccc3ncnc(Nc4cccc(C(=O)N5CCOCC5)c4)c3c2)cc1C#N | 6610
7 | 0 |  |  |  | COc1ccc(-c2ccc3nccc(Nc4cccc(C(=O)N5CCN(C)CC5)c4)c3c2)cc1C(N)=O | 
8 | 0 |  |  |  | COc1ccc(-c2ccc3ncnc(Nc4ccc(C(=O)N5CCOCC5)cc4)c3c2)cc1C(N)=O | 
9 | 49 |  |  |  | COc1c(C(N)=O)cc(-c2ccc3ncnc(Nc4cccc(C(=O)N5CCOCC5)c4)c3c2)cc1[N+](=O)[O-] | 
10 | 61 |  |  |  | COc1ccc(-c2ccc3ncnc(Nc4ccc(C(=O)N5CCOCC5)cc4)c3c2)cn1 | 
11 | 61 |  |  |  | COc1cc(C(N)=O)cc(-c2ccc3ncnc(Nc4cccc(C(=O)N5CCOCC5)c4)c3c2)c1 | 
12 | 33 |  |  |  | COc1ccc(-c2ccc3ncnc(Nc4cccc(C(=O)N5CCN(C)CC5)c4)c3c2)cc1C(N)=O | 
13 | 91 | 1060 | 950 | 9.7 | NC(=O)c1cc(-c2ccc3ncnc(Nc4cccc(C(=O)N5CCOCC5)c4)c3c2)cc(C(F)(F)F)c1 | 1100
14 | 23 |  |  |  | COc1ccc(-c2ccc3nccc(Nc4cccc(C(=O)N5CCN(C)CC5)c4)c3c2)cn1 | 
